For this assay, the system named is CD2F1 mice, intracerebral L1210 leukemia, survival T/C. The experiment in a line: NCI In Vivo Anticancer Drug Screen. Data for tumor model L1210 Leukemia (intracerebral) in CD2F1 (CDF1) mice. To be noted: higher = longer survival. As to the method: The antitumor activity of compounds was measured in mice bearing transplantable tumors. Survival or tumor size were measured and the results are expressed as the measurement made in the treated group (T) divided by the measurement made in the vehicle treated control group (C). The tumor model used in this assay is L1210 Leukemia (intracerebral) in CD2F1 (CDF1) mice

Where [1] appears, read: endpoint: mean survival time, dose: 10.0 mg/kg/injection, schedule: Q01DX007 (ip), vehicle: DMSO.
The mark [2] stands for this setting: endpoint: mean survival time, dose: 20.0 mg/kg/injection, schedule: Q01DX007 (ip), vehicle: DMSO.
[3] abbreviates: endpoint: mean survival time, dose: 40.0 mg/kg/injection, schedule: Q01DX007 (ip), vehicle: DMSO.
Setting [4] is: endpoint: mean survival time, dose: 80.0 mg/kg/injection, schedule: Q01DX007 (ip), vehicle: DMSO.
[5] abbreviates: endpoint: mean survival time, dose: 120.0 mg/kg/injection, schedule: Q01DX007 (ip), vehicle: DMSO.
The mark [6] stands for this setting: endpoint: median survival time, dose: 16.0 mg/kg/injection, schedule: Q01DX005 (ip), vehicle: saline with Tween-80.
Setting [7] is: endpoint: median survival time, dose: 32.0 mg/kg/injection, schedule: Q01DX005 (ip), vehicle: saline with Tween-80.
Where [8] appears, read: endpoint: median survival time, dose: 64.0 mg/kg/injection, schedule: Q01DX005 (ip), vehicle: saline with Tween-80.
Where [9] appears, read: endpoint: median survival time, dose: 128.0 mg/kg/injection, schedule: Q01DX005 (ip), vehicle: saline with Tween-80.
Where [10] appears, read: endpoint: median survival time, dose: 256.0 mg/kg/injection, schedule: Q01DX005 (ip), vehicle: saline with Tween-80.
Where [11] appears, read: endpoint: median survival time, dose: 80.0 mg/kg/injection, schedule: Q01DX001 (ip), vehicle: saline.
Where [12] appears, read: endpoint: median survival time, dose: 160.0 mg/kg/injection, schedule: Q01DX001 (ip), vehicle: saline.

From PubChem BioAssay AID260 (DTP/NCI, 2004) come the findings set out here.

Values joined by “and” are separate entries in the source; they are usually repeats but may differ in a detail not shown here. Identical values can stand only once. Inconclusive results and toxic doses are left out.

On to `CN(C)N=Nc1ccc(Cl)cc1`, for which the T/C was 90 % of control under setting [1]; 91 % of control under setting [2]; 108 % of control under setting [3]; 87 % of control under setting [4]; 91 % of control under setting [5].

On to `O=C(Nc1ccccc1)c1c(O)[nH]c(=S)[nH]c1=O`, for which the T/C is 94 % of control (endpoint: median survival time, dose: 12.5 mg/kg/injection, schedule: Q01DX009 (ip), vehicle: saline with Tween-80); 98 % of control (endpoint: median survival time, dose: 25.0 mg/kg/injection, schedule: Q01DX009 (ip), vehicle: saline with Tween-80); 113 % of control (endpoint: median survival time, dose: 50.0 mg/kg/injection, schedule: Q01DX009 (ip), vehicle: saline with Tween-80).

Consider `CCCCCCCCN(C)/N=N/c1nc[nH]c1C(N)=O`, for which the T/C reads like this: under setting [6], 119 % of control; under setting [7], 121 % of control; under setting [8], 124 % of control; under setting [9], 118 % of control; under setting [10], 89 % of control.

With `O=S1(=O)CS(=O)(=O)OCCO1`, the T/C was 122 % of control (endpoint: median survival time, dose: 3.13 mg/kg/injection, schedule: Q01DX009 (ip), vehicle: Klucel (hydroxypropylcellulose) (HPC)); 170 % of control (endpoint: median survival time, dose: 12.5 mg/kg/injection, schedule: Q01DX009 (ip), vehicle: Klucel (hydroxypropylcellulose) (HPC)); 182 % of control (endpoint: median survival time, dose: 25.0 mg/kg/injection, schedule: Q01DX009 (ip), vehicle: Klucel (hydroxypropylcellulose) (HPC)); 200 % of control (endpoint: median survival time, dose: 50.0 mg/kg/injection, schedule: Q01DX009 (ip), vehicle: Klucel (hydroxypropylcellulose) (HPC)).

On to `CC[n+]1c(-c2ccccc2)c2cc(N)ccc2c2ccc(N)cc21`, for which the T/C is, setting by setting: (endpoint: median survival time, dose: 12.0 mg/kg/injection, schedule: Q01DX005 (ip), vehicle: saline) 100 % of control; (endpoint: median survival time, dose: 24.0 mg/kg/injection, schedule: Q01DX005 (ip), vehicle: saline) 104 % of control.

Regarding `CN=NNc1nc[nH]c1C(N)=O`, the T/C was 107 % of control under setting [6]; 101 % of control under setting [7]; 112 % of control under setting [8]; 107 % of control under setting [9]; 86 % of control under setting [10].

Regarding `N[C@H](C(=O)O)[C@@H]1CC(Cl)=NO1`, the T/C (endpoint: mean survival time, dose: 16.0 mg/kg/injection, schedule: Q01DX009 (ip), vehicle: saline) is 124 % of control and the T/C (endpoint: mean survival time, dose: 32.0 mg/kg/injection, schedule: Q01DX009 (ip), vehicle: saline) was 101 % of control.

As to `N=C(N)SCc1c2ccccc2c(CSC(=N)N)c2ccccc12`, the T/C (endpoint: mean survival time, dose: 50.0 mg/kg/injection, schedule: Q01DX009 (ip), vehicle: saline) is 103 % of control; the T/C (endpoint: mean survival time, dose: 100.0 mg/kg/injection, schedule: Q01DX009 (ip), vehicle: saline) is 124 % of control; the T/C (endpoint: mean survival time, dose: 200.0 mg/kg/injection, schedule: Q01DX009 (ip), vehicle: saline) is 88 % of control; the T/C (endpoint: median survival time, dose: 2.5 mg/kg/injection, schedule: Q01DX005 (ip), vehicle: Klucel (hydroxypropylcellulose) (HPC)) was 93 % of control and 98 % of control; the T/C (endpoint: median survival time, dose: 5.0 mg/kg/injection, schedule: Q01DX005 (ip), vehicle: Klucel (hydroxypropylcellulose) (HPC)) was 97 % of control and 112 % of control; the T/C (endpoint: median survival time, dose: 10.0 mg/kg/injection, schedule: Q01DX005 (ip), vehicle: Klucel (hydroxypropylcellulose) (HPC)) was 103 % of control and 115 % of control. In addition, the T/C (endpoint: median survival time, dose: 20.0 mg/kg/injection, schedule: Q01DX005 (ip), vehicle: Klucel (hydroxypropylcellulose) (HPC)) was 103 % of control and 112 % of control.

With `COC(=O)C(Cc1ccc(N(CCCl)CCCl)cc1)N=NNc1nc[nH]c1C(N)=O` (stereo not drawn), the T/C runs as follows: (endpoint: median survival time, dose: 8.0 mg/kg/injection, schedule: Q01DX005 (ip), vehicle: saline with Tween-80) 95 % of control; under setting [6], 115 % of control; under setting [7], 95 % of control.

Regarding `C[n+]1c2ccccc2nc2c(N)cc(N)cc21`, the T/C runs as follows: (endpoint: median survival time, dose: 4.0 mg/kg/injection, schedule: Q01DX005 (ip), vehicle: suspension in saline) 93 % of control and 98 % of control; (endpoint: median survival time, dose: 8.0 mg/kg/injection, schedule: Q01DX005 (ip), vehicle: suspension in saline) 102 % of control; (endpoint: median survival time, dose: 16.0 mg/kg/injection, schedule: Q01DX005 (ip), vehicle: suspension in saline) 96 % of control and 98 % of control; (endpoint: median survival time, dose: 32.0 mg/kg/injection, schedule: Q01DX005 (ip), vehicle: suspension in saline) 96 % of control and 97 % of control.

In the case of `CC(C)(CO)COC(=O)NC1=C(N2CC2)C(=O)C(NC(=O)OCC(C)(C)CO)=C(N2CC2)C1=O`, the T/C reads like this: (endpoint: median survival time, dose: 0.75 mg/kg/injection, schedule: Q01DX009 (ip), vehicle: water) 102 % of control and 105 % of control; (endpoint: median survival time, dose: 1.5 mg/kg/injection, schedule: Q01DX009 (ip), vehicle: water) 103 % of control and 108 % of control; (endpoint: median survival time, dose: 3.0 mg/kg/injection, schedule: Q01DX009 (ip), vehicle: water) 105 % of control and 110 % of control; (endpoint: median survival time, dose: 6.0 mg/kg/injection, schedule: Q01DX009 (ip), vehicle: water) 110 % of control and 113 % of control; (endpoint: median survival time, dose: 12.0 mg/kg/injection, schedule: Q01DX009 (ip), vehicle: water) 119 % of control and 113 % of control.

Consider `O=P1(N(CCCl)CCCl)NC(OO)CCO1` (stereo not drawn), for which the T/C is 100 % of control (endpoint: median survival time, dose: 40.0 mg/kg/injection, schedule: Q01DX001 (ip), vehicle: saline); 102 % of control under setting [11]; 103 % of control under setting [12].

For `CN(C)P1(=O)NCCCO1` (stereo not drawn), the T/C under setting [11] is 91 % of control; the T/C under setting [12] is 90 % of control; the T/C (endpoint: median survival time, dose: 320.0 mg/kg/injection, schedule: Q01DX001 (ip), vehicle: saline) was 92 % of control; the T/C (endpoint: median survival time, dose: 640.0 mg/kg/injection, schedule: Q01DX001 (ip), vehicle: saline) was 95 % of control; the T/C (endpoint: median survival time, dose: 1280.0 mg/kg/injection, schedule: Q01DX001 (ip), vehicle: saline) was 91 % of control.

For the compound `CC(=O)c1ccccc1N=NN(C)C`, the T/C is 91 % of control under setting [1]; 91 % of control under setting [2]; 93 % of control under setting [3]; 103 % of control under setting [4]; 100 % of control under setting [5].

As for `CN(Cc1ccccc1)/N=N/c1nc[nH]c1C(N)=O`, the T/C was 112 % of control under setting [7] and 94 % of control (endpoint: median survival time, dose: 512.0 mg/kg/injection, schedule: Q01DX005 (ip), vehicle: saline with Tween-80).

Regarding `CC1(C)N=C(N)N=C(N)N1c1ccc(OCc2ccc(C(=O)Nc3cccc(S(=O)(=O)F)c3)cc2)c(Cl)c1`, the T/C by setting is: (endpoint: mean survival time, dose: 50.0 mg/kg/injection, schedule: Q04DX003 (ip), vehicle: saline) 111 % of control; (endpoint: mean survival time, dose: 100.0 mg/kg/injection, schedule: Q04DX003 (ip), vehicle: saline) 111 % of control.

In the case of `COC(COC(=O)N1CCN(C=O)CC1)C1=C(N2CC2)C(=O)C(C)=C(N2CC2)C1=O` (stereo not drawn), the T/C runs as follows: (endpoint: median survival time, dose: 0.75 mg/kg/injection, schedule: Q01DX009 (ip), vehicle: saline) 115 % of control; (endpoint: median survival time, dose: 1.5 mg/kg/injection, schedule: Q01DX009 (ip), vehicle: saline) 105 % of control; (endpoint: median survival time, dose: 6.0 mg/kg/injection, schedule: Q01DX009 (ip), vehicle: saline) 160 % of control.

In the case of `N[C@@H](Cc1ccc(N(CCCl)CCCl)cc1)C(=O)O`, the T/C was 116 % of control (endpoint: mean survival time, dose: 1.25 mg/kg/injection, schedule: Q01DX009 (ip), vehicle: saline) and 120 % of control (endpoint: mean survival time, dose: 2.5 mg/kg/injection, schedule: Q01DX009 (ip), vehicle: saline).

Turning to `S=P(N1CC1)(N1CC1)N1CC1`, the T/C was 100 % of control and 104 % of control and 112 % of control (endpoint: mean survival time, dose: 0.25 mg/kg/injection, schedule: Q01DX009 (ip), vehicle: saline); 102 % of control and 106 % of control (2×) (endpoint: mean survival time, dose: 0.5 mg/kg/injection, schedule: Q01DX009 (ip), vehicle: saline); 104 % of control and 106 % of control and 114 % of control (endpoint: mean survival time, dose: 1.0 mg/kg/injection, schedule: Q01DX009 (ip), vehicle: saline); 124 % of control (endpoint: mean survival time, dose: 2.0 mg/kg/injection, schedule: Q01DX009 (ip), vehicle: saline); 158 % of control and 162 % of control and 168 % of control (endpoint: mean survival time, dose: 4.0 mg/kg/injection, schedule: Q01DX009 (ip), vehicle: saline); 86 % of control (endpoint: mean survival time, dose: 8.0 mg/kg/injection, schedule: Q01DX009 (ip), vehicle: saline).
